This note sets out measurements from publication PMC5963095 (International Journal for Parasitology: Drugs and Drug …, 2017).

The target of one assay is T1, PfEXP1 (Plasmodium falciparum, UniProt Q8IIF0).
T1 sequence (Q8IIF0 23-162): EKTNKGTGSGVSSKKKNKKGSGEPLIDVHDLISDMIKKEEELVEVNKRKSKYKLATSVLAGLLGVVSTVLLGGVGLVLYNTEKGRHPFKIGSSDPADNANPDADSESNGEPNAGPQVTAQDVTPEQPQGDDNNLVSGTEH
Nature of the assay: glutathione S-transferase assay, absorbance at […] nm. The assay is classed as biochemical.

Assay [1] deals with T2, PfEXP1 (expressed in Pichia pastoris) (Plasmodium falciparum, UniProt Q8IIF0).
T2 sequence (Q8IIF0 23-162): T1 sequence (Q8IIF0 23-162)
The description is as above. Type of assay: biochemical.

`CCN(CC)CCCC(C)Nc1ccnc2cc(Cl)ccc12` (stereo not drawn) [chloroquine]: the IC50 at PfEXP1 was 19.3 ± 2.67 nM; in assay [1] it was 11.1 ± 4.12 nM.
Turning to `C=C[C@H]1C[N@@]2CC[C@H]1C[C@H]2[C@H](O)c1ccnc2ccc(OC)cc12` [quinine], half-maximal inhibition in assay [1] (IC50) was put at 179 ± 52.1 nM.
